Measurements reported in publication PMC5100981 (Antiviral research, 2016).
Read-outs that look alike come from different tables or passages of the source.

What was measured:
[1] = system: Enterovirus D68 (Fermon strain); experiment: CPE inhibition assay; assay type: cell-based; settings: for EC50: Enterovirus D, RD, read-out: EC50, 50% effective (virus-inhibitory) concentration
[2] = system: Enterovirus 71 (Tainan/4643/98 strain); experiment: CPE inhibition assay; assay type: cell-based
[3] = system: Rhinovirus 87 (F02-3607 Corn strain); experiment: CPE inhibition assay; assay type: cell-based
[4] = system: EV-D68 (US/KY/14-18953 strain); experiment: Virus yield reduction; assay type: cell-based, Enterovirus D68
[5] = in vitro; settings: human
[6] = system: EV-D68/US/KY/14-18953; experiment: CPE inhibition; assay type: cell-based, Enterovirus D68; settings: for EC50: Enterovirus D, EVD68, HeLa Ohio1, read-out: EC50, 50% effective concentration; for SI, selectivity index (CC50 / EC50): HeLa-Ohio-1 cells
[7] = system: EV-D68/US/KY/14-18953; experiment: CPE inhibition; assay type: cell-based, Enterovirus D68; settings: for SI, selectivity index (CC50 / EC50): A549 cells; for EC50: Enterovirus D, EVD68, A549, read-out: EC50, 50% effective concentration
[8] = in vitro; settings: human, uninfected A549 lung carcinoma cells, stationary monolayers
[9] = system: RD human rhabdomyosarcoma cells
[10] = system: EV-71; settings: ref Zhang et al., 2013; cited from earlier work
[11] = Enterovirus D68/Fermon, RD cells
[12] = EV-D68 US/KY/14-18953, RD cells

Compound | SI, selectivity index (CC50 / EC50) [1] | EC50 [1] | SI, selectivity index (CC50 / EC50) [2] | SI, selectivity index (CC50 / EC50) [3] | SI, selectivity index (CC50 [from Table 1] / EC90) [4] | CC50 [5] | SI, selectivity index (CC50 / EC50) [1, 11] | SI, selectivity index (CC50 / EC50) ([2]; Enterovirus 71, RD cells) | EC50 [6] | SI, selectivity index (CC50 / EC50) [6] | SI, selectivity index (CC50 / EC50) ([3]; Rhinovirus 87, RD cells) | SI, selectivity index (CC50 / EC50) [7] | EC50 [7] | SI, selectivity index (CC50 [from Table 1] / EC90) [4, 12] | CC50 [8] | CC50 ([5]; uninfected RD rhabdomyosarcoma cells, stationary monolayers) | CC50 [9] | Overall activity against EV-D68 virus (in words) ([4]; CPE inhibited at much lower concentration than virus yield) | Treatment of EV-71 infection in suckling mice (mortality and clinical scores) [10]
Nc1cc2nc[nH]c2c(=O)[nH]1 [3-Deazaguanine, 3-deazaguanine] | 54 | 6.7 ± 1.6 µM | 5 | 45 | 45 | 360 ± 227 µM | – | – | – | – | – | – | – | – | – | – | – | – | –
CC(C)S(=O)(=O)n1c(N)nc2ccc(/C(=N/O)c3ccccc3)cc21 [Enviroxime, enviroxime] | – | 0.27 ± 0.19 µM | – | – | – | – | 352 | 92 | 1.7 ± 0.72 µM | 45 | 500 | 89 | 0.77 ± 1.1 µM | 156 | 68 ± 13 µM | 66 ± 28 µM | – | – | –
CCOC(=O)c1ccc(OCCC2CCN(c3ccc(C)nn3)CC2)cc1 [Pirodavir, pirodavir] | – | 7 ± 3 µM | – | – | – | – | 3 | 24 | 6.1 ± 2.8 µM | 5.3 | – | 13 | 11 ± 7.2 µM | <1 | – | – | 32 ± 18 µM | poorly effective | –
Cc1cc(CCCOc2c(C)cc(-c3noc(C(F)(F)F)n3)cc2C)on1 [Pleconaril, pleconaril] | 87 | 0.13 ± 0.09 µM | – | 7 | 54 | 11.3 ± 6.3 µM | – | – | – | – | – | – | – | – | – | – | – | – | –
NC(=O)c1ncn([C@@H]2O[C@H](CO)[C@@H](O)[C@H]2O)n1 [Ribavirin, ribavirin] | – | 147 ± 74 µM | – | – | – | 1100 ± 450 µM | – | – | – | – | – | – | – | – | – | – | – | – | –
CCOC(=O)/C=C/[C@H](C[C@@H]1CCNC1=O)NC(=O)[C@@H](CC(=O)[C@@H](NC(=O)c1cc(C)on1)C(C)C)Cc1ccc(F)cc1 [Rupintrivir, rupintrivir] | 60910 | 0.0022 µM | 7450 | 25280 | 33,500 | 134 ± 21 µM | – | – | – | – | – | – | – | – | – | – | – | – | effective
